Patent publication US20240148713A1 (INDUSTRY-ACADEMIC COOPERATION FOUNDATION, YONSEI UNIVERSITY, priority 2021, published 2024)

Experiments:
[1] = test system: HS746T cell line; test: CCK-8 assay, CCG-232601 and oxaliplatin alone or in combination; assay type: cell-based, human
Procedure: In order to examine whether the co-administration of the compound CCG-232601 is also effective in improving drug sensitivity to other platinum-based anticancer drugs of the same family as cisplatin, the survival and growth inhibitory effects upon administration of CCG-232601 and oxaliplatin alone or in combination to the HS746T cell line were evaluated using a cell viability assay kit (Cell Counting Kit-8; CCK-8). Unlike administration alone, to evaluate the effect of co-administration, 5 μg/ml CCG-232601 was first administered to the HS746T cell line, and 24 hours after administration of CCG-232601, 24 μg/ml oxaliplatin was administered to the cell line, and 24 hours after administration of oxaliplatin, CCK-8 assay was performed using a cell viability assay kit.

[2] = test system: HS746T; test: Transwell invasion assay; assay type: cell-based, human; settings: 10 μg/ml, 12 hours, matrigel transwell, FIG. 3
Procedure: (§1) Transwell invasion assay was performed with or without CCG-232601 treatment. Invasion ability was measured using a 6.5-mm transwell with an 8.0 μm-pore polycarbonate membrane insert (Corning) after coating with matrigel (Corning) diluted with serum-free medium to 0.67 μg/μl. Then, 2×10^4 cells per well were suspended in 200 μl of serum-free medium with vehicle or 10 μg/ml CCG-232601, and 1,000 μl of culture medium containing 10% FBS was added to the lower chamber. After 12 hours, the transferred cells were stained with 0.2% crystal violet and observed under an optical microscope. The average number of cells penetrating the membrane was counted with ImageJ (NIH) in three randomly selected high-power fields and two independent experiments, and the results are shown in FIG. 3.

[3] = test system: MKN1; test: Transwell invasion assay; assay type: cell-based, human; settings: MKN1, 10 μg/ml, 12 hours, matrigel transwell, FIG. 3
Procedure: as §1

[4] = test system: HS746T; test: Oxygen consumption rate (OCR) and extracellular acidification rate (ECAR), extracellular flux analyzer; assay type: cell-based, human
Procedure: (§2) In particular, in order to confirm that the CCG-232601 compound has an excellent inhibitory effect against the growth of cancer stem cells, the oxygen consumption rate (OCR) and extracellular acidification rate (ECAR) of the stern-like cell lines HS746T and MKN1 having high resistance to metabolic stress were measured and the results are FIG. 2. More specifically, each of the cell lines was inoculated at a confluency of 70 to 80% in Seahorse normal culture medium, and oxygen consumption rate (OCR, pmol/min/μg protein) and extracellular acidification rate (ECAR, mpH/min/μg protein) were analyzed using an XF96 or XFp extracellular flux analyzer (Agilent) to determine mitochondrial oxidation and glycolysis levels. Mitochondrial oxidation ability of the cells pretreated for 1 hour with or without 10 mM β-HB (Sigma) was evaluated using the Seahorse XF Mito Stress Kit (Agilent). To overcome changes in oxidation and glycolysis processes upon treatment with CCG-232601, the cells were pretreated overnight with vehicle or the inhibitor, and finally 10 mM β-hydroxybutyrate was added upon the first injection.

[5] = test system: MKN1; test: as above; assay type: cell-based, human
Procedure: as §2

[6] = test system: MKN1 cell line; test: CCK-8 assay, CCG-232601 and cisplatin alone or in combination; assay type: cell-based, human; settings: FIG. 6
Procedure: Accordingly, in order to evaluate the effect of co-administration of the compound CCG-232601, the survival and growth inhibitory effects upon administration of cisplatin (CDDP) and CCG-232601 alone or in combination to the MKN1 cell line were evaluated using a cell viability assay kit (Cell Counting Kit-8; CCK-8). Unlike administration alone, to evaluate the effect of co-administration, 5 μg/ml CCG-232601 was first administered to the MKN1 cell line, and 24 hours after administration of CCG-232601, 5 μM cisplatin (CDDP) was administered to the cell line, and 24 hours after administration of CDDP, CCK-8 assay was performed using a cell viability assay kit.

[7] = test system: NCIN87; test: Cell viability (CCK-8), treatment alone, Example 1; assay type: cell-based, human; settings: NCIN87 gastric cancer cell line, different concentrations, 48 hours, FIG. 1
Procedure: (§3) In order to evaluate the ability to inhibit the growth or metastasis of cancer cell lines or cancer stem cell lines in Examples of the present invention, the present inventors obtained the cell lines MKN1 and HS746T having human gastric cancer stem cell characteristics, and the human gastric cancer cell lines SNU601, YCC7 and NCIN87, from the American Type Culture Collection (ATCC) and the Korean Cell Line Bank (KCRB). The cell lines were cultured in different culture media under different culture conditions according to the ATCC or KCRB guides. The MKN1, SNU601, and NCIN87 cell lines were cultured in RPMI1640 media containing 10% fetal bovine serum (FBS), 2 mM L-glutamine, 100 U/ml penicillin and 100 μg/ml streptomycin, and the HS746T and YCC7 cell lines were cultured in DMEM media containing 10% FBS, 2 mM L-glutamine, 100 U/ml penicillin and 100 μg/ml streptomycin. All the cell lines were cultured at 37° C. under 5% CO2, and mycoplasma contamination tests were performed.
(§4) The cell lines cultured in the Preparation Example were seeded into well plates at a density of 1×10^4 cells per well, and cultured overnight at 37° C. under 5% CO2. Next, each of the gastric cancer stem-like cell lines HS746T and MKN1 and the gastric cancer cell lines YCC7 and NCIN87 was treated with different concentrations of each of the anticancer drug cisplatin (CDDP), which is currently widely used in the treatment of gastric cancer patients, and the MRTF A inhibitor CCG-232601 compound, and after 48 hours, the number of cells was counted and the results are shown in FIG. 1. 100 μL of each cell culture and 10 μL of reaction buffer (CCK) were mixed together, placed in a 96-well plate, incubated for 1 hour at room temperature, and then measured for absorbance at a wavelength of 450 nm using a spectrophotometer (Synergy HTX Multi-Reader, BioTek, Winooski, VT, USA). At the same time, the number of cells in each sample was counted using a cell viability assay kit (Cell Counting Kit-8), and the counted value was expressed relative to the cell number of the negative control group so that the same cell number in each cell could be compared with the cell number of the negative control group. The experimental results are shown as the mean values of the repeated experiments.

[8] = test system: HS746T; test: Cell viability (CCK-8), treatment alone, Example 1; assay type: cell-based, human; settings: HS746T stem-like cell line, different concentrations, 48 hours, FIG. 1
Procedure: as §3, §4

[9] = test system: YCC7; test: Cell viability (CCK-8), treatment alone, Example 1; assay type: cell-based, human; settings: YCC7 gastric cancer cell line, different concentrations, 48 hours, FIG. 1
Procedure: as §3, §4

[10] = test system: MKN1; test: Cell viability (CCK-8), treatment alone, Example 1; assay type: cell-based, human; settings: MKN1 stem-like cell line, different concentrations, 48 hours, FIG. 1
Procedure: as §3, §4

[11] = test system: bleomycin-induced dermal fibrosis; settings: administered orally to mice; cited from earlier work
[12] = test system: HS746T cell line; test: CCK-8 assay, MRTF A inhibitor and cisplatin alone or in combination; assay type: cell-based, human; settings: 5 μg/ml inhibitor, after 24 hours 5 μM cisplatin, CCK-8 24 hours later, FIG. 8
Procedure: In the same manner as described above, 5 μg/ml CCG-232601, CCG-203971 or CCG-222740 was first administered to the HS746T cell line, and after 24 hours, 5 μM cisplatin (CDDP) was administered to the cell line, and 24 hours after administration of CDDP, a CCK-8 assay was performed using a cell viability assay kit.

[13] = test system: human colonic myofibroblasts; settings: cited from earlier work
[14] = test system: murine model of skin injury; settings: cited from earlier work
[15] = test system: lung fibrosis lung fibroblasts; settings: cited from earlier work
[16] = test system: alpha smooth muscle actin protein; settings: cited from earlier work
[17] = test system: preclinical fibrosis model; settings: cited from earlier work
[18] = test system: HS746T; test: Drug sensitivity upon treatment with cisplatin (CDDP); assay type: cell-based, human
Procedure: (§5) Drug sensitivity upon treatment with cisplatin (CDDP) was measured in the gastric cancer cell lines SNU601 and NCIN87 and the cell lines HS746T and MKN1 having gastric cancer stem cell-like characteristics, and the results are shown in FIG. 3.

[19] = test system: MKN1; test: as above; assay type: cell-based, human
Procedure: as §5

O=C(Nc1ccc(Cl)cc1)C1CN(C(=O)c2cccc(-c3ccncc3)c2)CC(F)(F)C1 (centres unmarked) [CCG-232601, N-(4-chlorophenyl)-5,5-difluoro-1-(3-(pyridin-4-yl)benzoyl)piperidine-3-carboxamide]
cytotoxicity at 5 µg/mL ([1]; Homo sapiens, 5 μg/ml CCG-232601, after 24 hours 24 μg/ml oxaliplatin, CCK-8 24 hours later, FIG. 7, read-out: reduction of cell viability compared to oxaliplatin alone): ≥ 20% | growth of the cancer stem-like cells, administered alone ([1]; administered alone, FIG. 7): reduced the growth | invasion and metastasis (cells penetrating the membrane) [2]: reduced the invasion and metastasis | invasion and metastasis (cells penetrating the membrane) [3]: reduced the invasion and metastasis | susceptibility to glucose deprivation ([4]; conclusion from OCR/ECAR results): greatly increased the susceptibility | glycolytic ECAR versus OCR (mitochondrial respiration) ([4]; pretreated overnight with inhibitor, FIG. 2): ECAR was higher than the OCR | susceptibility to glucose deprivation ([5]; MKN1, conclusion from OCR/ECAR results): greatly increased the susceptibility | glycolytic ECAR versus OCR (mitochondrial respiration) ([5]; MKN1, pretreated overnight with inhibitor, FIG. 2): ECAR was higher than the OCR | reduction of cell viability ([6]; MKN1, administered alone, compared to negative control group and cisplatin-alone group): 20% | antitumor effect (cell number relative to negative control) [7]: exhibited antitumor effects | antitumor effect (cell number relative to negative control) [8]: exhibited antitumor effects | antitumor effect (cell number relative to negative control) [9]: exhibited antitumor effects | antitumor effect (cell number relative to negative control) [10]: exhibited antitumor effects | development of bleomycin-induced dermal fibrosis [11]: suppress the development | drug sensitivity to cisplatin in combination versus cisplatin alone [12]: drug sensitivity was improved

O=C(Nc1ccc(Cl)cc1)C1CCCN(C(=O)c2cccc(-c3ccco3)c2)C1 (centres unmarked) [CCG-203971, N-(4-chlorophenyl)-1-(3-(furan-2-yl)benzoyl)piperidine-3-carboxamide]
matrix stiffness and TGF-β-mediated fibrogenesis [13]: represses | antifibrotic activity [14]: shows antifibrotic activity | antifibrotic activity [15]: shows antifibrotic activity | drug sensitivity to cisplatin in combination versus cisplatin alone [12]: drug sensitivity was improved

O=C(Nc1ccc(Cl)cc1)C1CN(C(=O)c2cccc(-c3ccco3)c2)CC(F)(F)C1 (centres unmarked) [CCG-222740, N-(4-chlorophenyl)-5,5-difluoro-1-(3-(furan-2-yl)benzoyl)piperidine-3-carboxamide]
expression of alpha smooth muscle actin protein [16]: prevent the expression | scar tissue formation [17]: effectively prevent scar tissue formation | drug sensitivity to cisplatin in combination versus cisplatin alone [12]: drug sensitivity was improved

N.N.[Cl][Pt][Cl] [cisplatin]
drug sensitivity lower than that of the cancer cell lines ([18]; HS746T versus SNU601 and NCIN87, FIG. 4): 20 to 40% | resistance of the cell line to cisplatin ([18]; HS746T, FIG. 4): showed resistance | resistance of the cell line to cisplatin ([19]; MKN1, FIG. 4): showed resistance | drug sensitivity lower than that of the cancer cell lines ([19]; MKN1 versus SNU601 and NCIN87, FIG. 4): 20 to 40% | effect on cell viability, administered alone ([6]; MKN1, cisplatin alone): drug resistance | antitumor effect (cell number relative to negative control) [8]: exhibited significantly improved antitumor effects | antitumor effect (cell number relative to negative control) [10]: exhibited significantly improved antitumor effects
